Measured values taken from patent US12268665B2, “Combination of immunotherapies with MDM2 inhibitors” (ASCENTAGE PHARMA (SUZHOU) CO., LTD., priority 2018, dated 2025).
Where two headings read alike, the source gives them in different places.

Tests used:
[1] = Pharmacokinetic (PK) analysis in MH-22A tumor-bearing mice (LC/MS/MS); assay type: in vivo, mouse; settings: mouse; for concentration at 4 h: oral, 100 mg/kg
Description: The quantitative LC/MS/MS analysis was conducted using an Exion HPLC system (AB Sciex, Ontario, Canada) coupled to an API 5500 mass spectrometer (AB Sciex, Ontario, Canada) equipped with an API electrospray ionization (ESI) source. The Phenomenex Titank phenyl-Hexyl column (50 mm×2.1 mm, 5 μm particle size) was used to achieved HPLC separation. The injection volume was 2 μl and the flow rate was kept constantly at 0.5 ml/min. Chromatography was performed with mobile phase A, acetonitrile:water:formic (5:95:0.1, by volume) and B, acetonitrile:water:formic (95:5:0.1, by volume). The mass spectrometer was operated at ESI positive ion mode for APG-115 while ESI negative mode for epacadostat. The detection of the ions was performed in the multiple reaction monitoring (MRM) mode, monitoring the transition of m/z 642.0→246.1 and 271.1→172.0 for APG-115 and IS (tolbutamide) in positive mode, 435.9→338.8 and 269.2→169.2 for epacadostat and IS (tolbutamide) in negative mode, respectively. Compounds parameters, declustering potential (DP), collision energy (CE) were 51, 61 V, 80, 18 V for APG-115 and IS in positive mode, −61, −15 V and −90, −23.5 V for epacadostat and IS in negative mode, respectively.
Blood and tumor samples were collected from 5 mice/group in group-1, group-2, group-3 and group-5 4 hrs after the final dose on […]. Blood samples were collected from 5 mice/group in group-4, group-6, group-7 and group-8 4 hrs after the final dose on d29. Approximately 100 μl blood were collected in EDTA-2K tube and 50 μl plasma were collected for PK analysis. All samples were stored at −80° C. until analysis.
In efficacy study of Example 2.1, mice in vehicle, APG-115 10 mg/kg and 50 mg/kg, and epacadostat single-agent groups were euthanized on d15 as described above. To assess PK characteristics of APG-115 and epacadostat in this study, plasma and tissue samples were collected 4 h after the last dosing on d15.

[2] = test system: MH-22A syngeneic tumor model; experiment: Efficacy in the TIL analysis study, MH-22A model (d7); assay type: in vivo, mouse; settings: APG-115 10 mg/kg p.o. q2d; anti-PD-1 5 mg/kg i.p. biw; epacadostat 100 mg/kg p.o. bid; × 6 d
Description: (§1) Each mouse was inoculated subcutaneously at the right flank region with MH-22A tumor cells (5×10^6) in 0.2 mL of PBS for tumor development. The treatments were started when the mean tumor size reached 60 mm^3. The test articles were administered to the tumor-bearing mice according to the regimen shown in the experimental design Table 6. The day of start dosing was defined as d1.
Mice bearing MH-22A murine hepatoma tumors were treated with various agent(s) under different regimens as indicated. Isotype control antibody was included in the control.

[3] = test system: MH-22A murine hepatoma syngeneic model; experiment: In vivo efficacy study in MH-22A model; design: species or system mouse
Description: Tumor volumes were measured twice weekly in two dimensions using a caliper, and the volume was expressed in mm^3 using the formula: Tumor Volume(mm^3)=0.5a×b^2 where a and b are the long and short diameters of the tumor, respectively.
Relative tumor volume (RTV) was calculated using the following formula: RTV=Vt/V1 Where V1 and Vt are the average tumor volumes on the first day of treatment (day 1) and the average tumor volumes on a certain time point (day t).
Synergy score was calculated using the following formula (Clarke R, Breast Cancer Research & Treatment, 1997, 46(2-3):255-278): Synergy score=((A/C)×(B/C))/(AB/C); A: response to treatment A; B: response to treatment B; C: response to vehicle control; AB: combination of treatment A and B.
Standard NCI procedures were used to calculate tumor parameters. Percent tumor growth inhibition (% T/C) was calculated as the mean RTV of treated tumors (T) divided by the mean RTV of control tumors (C)×100%. The percentage T/C value is an indication of antitumor effectiveness: a value of T/C<42% is considered significant antitumor activity by the NCI. A T/C value <10% is considered to indicate highly significant antitumor activity, and is the level used by the NCI to justify a clinical trial if toxicity and certain other requirements are met (termed DN-2 level activity). A body weight loss nadir (mean of group) of greater than 20%, or greater than 20% of drug deaths are considered to indicate an excessively toxic dosage.
as §1, with “initiated” for “started”, “˜65” for “60”, “3.” for “6.”

[4] = APG-115 10 mg/kg p.o. qd, anti-PD-1 10 mg/kg i.p. biw, epacadostat 100 mg/kg p.o. bid

pharmacokinetic interaction with anti-PD-1 antibody ([1]; in vivo): no apparent pharmacokinetic interaction
concentration at 4 h ([1]; plasma, 100 mg/kg daily oral, alone, read-out: plasma concentration of epacadostat): 5890 ng/mL
concentration at 4 h ([1]; plasma, 100 mg/kg daily oral, combined with anti-PD-1, read-out: plasma concentration of epacadostat): 8620 ng/mL
concentration at 4 h ([1]; tumor, 100 mg/kg dosed alone, read-out: epacadostat concentration in tumor): 9260 ng/g
Structure (SMILES): NS(=O)(=O)NCCNc1nonc1C(=NO)Nc1ccc(F)c(Br)c1 [epacadostat, reference compound]
RTV (Mean) d7 [2]: 12.7
T/C (%) d7 [2]: 82%
RTV (Mean ± SEM) d15 [3, 4]: 49.1 ± 5.8
T/C (%) d15 [3, 4]: 128%
Response rate (%) d15 ([3]; APG-115 10 mg/kg, anti-PD-1 10 mg/kg, epacadostat 100 mg/kg, n=10): 0%
antitumor activity as single agents ([3]; APG-115 10 and 50 mg/kg, epacadostat 100 mg/kg): did not exert antitumor activity
